In paper PMC6832265 (Molecules, 2019):
Values belong to the compound of their own block, whether it stands above or below them.

Molecular target: T1, Tdp1 (Homo sapiens, UniProt Q9NUW8)
T1 construct: made in house; host or cells: Escherichia coli
Test: Real-time detection of Tdp1 activity (5'-FAM/3'-BHQ1 oligonucleotide biosensor)
Type: biochemical
Details: 1.5 nM Tdp1, 50 nM oligonucleotide substrate, 26 °C
Description: We first studied the inhibition potency of our compounds to Tdp1 by using a real-time oligonucleotide biosensor assay that we have previously developed. The assay was based on the ability of Tdp1 to remove the fluorescence quencher from the 3’-end of DNA. The substrate is a 16-mer single-stranded oligonucleotide containing both a 5’-FAM fluorophore and a 3’-BHQ1 quencher.
A fluorophore quencher-coupled DNA-biosensor for real-time measurement of Tdp1 cleavage activity was recently designed in our laboratory. The biosensor is a 16-mer single-stranded oligonucleotide containing both a 5’-FAM fluorophore donor and a quenching 3’-BHQ1 moiety.
Recombinant protein Tdp1 was expressed in EsCherichia coli (pET 16B plasmid containing Tdp1 cDNA provided by Dr. K.W. Caldecott, University of Sussex, United Kingdom) and isolated as described. The reaction mixture in a final volume 200 μL contained Tdp1 reaction buffer (50 mM Tris-HCl, 50 mM NaCl, 7 mM β-mercaptoethanol), 50 nM oligonucleotide substrate, and varied concentrations of potential inhibitor. Purified Tdp1 was added in a final concentration of 1.5 nM.
The reaction mixtures were incubated at a constant temperature of 26 °C in a POLARstar OPTIMA fluorimeter, BMG LABTECH, GmbH, to measure fluorescence intensity every minute (Ex485/Em520 nm). Tdp1 inhibition was calculated by comparing the rate of increase in fluorescence of the biosensor in the presence of the compound to that of DMSO (1.5%) control wells. The measurements were carried out in at least two independent experiments. IC50 values were determined using a six-point concentration response curve. The data were imported into the MARS Data Analysis 2.0 program (BMG LABTECH) and the slope during the linear phase (data from 0 to 7 min) was calculated.

T1 sequence (Q9NUW8 whole entry): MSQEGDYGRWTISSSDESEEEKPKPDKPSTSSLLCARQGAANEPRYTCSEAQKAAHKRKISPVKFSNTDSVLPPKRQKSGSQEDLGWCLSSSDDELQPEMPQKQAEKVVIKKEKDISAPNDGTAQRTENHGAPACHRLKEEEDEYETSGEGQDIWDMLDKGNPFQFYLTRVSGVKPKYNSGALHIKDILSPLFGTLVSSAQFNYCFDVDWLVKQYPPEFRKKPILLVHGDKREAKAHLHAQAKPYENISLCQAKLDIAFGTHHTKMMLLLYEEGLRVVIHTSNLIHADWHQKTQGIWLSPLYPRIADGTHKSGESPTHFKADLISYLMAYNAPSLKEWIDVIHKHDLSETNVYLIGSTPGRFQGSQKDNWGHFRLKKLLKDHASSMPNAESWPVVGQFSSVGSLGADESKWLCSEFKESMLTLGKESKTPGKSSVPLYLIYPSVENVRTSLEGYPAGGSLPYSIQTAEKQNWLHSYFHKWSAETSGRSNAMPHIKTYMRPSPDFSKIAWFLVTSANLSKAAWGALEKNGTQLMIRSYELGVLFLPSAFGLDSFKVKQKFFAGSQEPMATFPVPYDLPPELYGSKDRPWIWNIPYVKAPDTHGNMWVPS

Compound: (2R)-4-Acetyl-5,11,13-trihydroxy-2,12-dimethyl-10-{2-[(E)-2-[(1H-2-methyl-indole-3-yl) methylidene]hydrazin-1-yl]-1,3-thiazol-4-yl}-8-oxatricyclo[7.4.0.0^2,7]trideca-1(9),4,6,10,12-pentaen-3-one [(+)-16q]
IC50: 21 ± 6 nM

Compound: CC(=O)C1=C(O)C=C2Oc3c(-c4csc(N/N=C/c5cc(Br)cs5)n4)c(O)c(C)c(O)c3[C@@]2(C)C1=O [(+)-16h, (2R)-4-Acetyl-5,11,13-trihydroxy-2,12-dimethyl-10-{2-[(E)-2-[(4-bromothiophen-2-yl)methylidene]hydrazin-1-yl]-1,3-thiazol-4-yl}-8-oxatricyclo[7.4.0.0^2,7]trideca-1(9),4,6,10,12-pentaen-3-one]
IC50: 70 ± 18 nM

Compound: CC(=O)C1=C(O)C=C2Oc3c(-c4csc(N/N=C/c5cccnc5)n4)c(O)c(C)c(O)c3[C@@]2(C)C1=O [(+)-16c, 3-[(1E)-(2-{4-[(1R)-12-Acetyl-3,5,11-trihydroxy-1,4-dimethyl-13-oxo-8-oxatricyclo[7.4.0.0^2,7]trideca-2(7),3,5,9,11-pentaen-6-yl]-1,3-thiazol-2-yl}hydrazin-1-ylidene)methyl]pyridin-1-ium bromide]
IC50: 353 ± 17 nM

Compound: CC(=O)C1=C(O)C=C2Oc3c(-c4csc(N/N=C/c5ccoc5)n4)c(O)c(C)c(O)c3[C@@]2(C)C1=O [(+)-16l, (2R)-4-Acetyl-5,11,13-trihydroxy-2,12-dimethyl-10-{2-[(E)-2-[(furan-3-yl)methylidene] hydrazin-1-yl]-1,3-thiazol-4-yl}-8-oxatricyclo[7.4.0.0^2,7]trideca-1(9),4,6,10,12-pentaen-3-one]
IC50: 77 ± 6 nM

Compound: CC(=O)C1=C(O)C=C2Oc3c(-c4csc(N/N=C/c5ccncc5)n4)c(O)c(C)c(O)c3[C@]2(C)C1=O [(−)-16a, 4-[(1E)-(2-{4-[(1S)-12-Acetyl-3,5,11-trihydroxy-1,4-dimethyl-13-oxo-8-oxatricyclo[7.4.0.0^2,7]trideca-2(7),3,5,9,11-pentaen-6-yl]-1,3-thiazol-2-yl}hydrazin-1-ylidene)methyl]pyridin-1-ium bromide]
IC50: 139 ± 38 nM

Compound: CC(=O)C1=C(O)C=C2Oc3c(-c4csc(N/N=C/c5cccs5)n4)c(O)c(C)c(O)c3[C@@]2(C)C1=O [(+)-16g, (2R)-4-Acetyl-5,11,13-trihydroxy-2,12-dimethyl-10-{2-[(E)-2-[(thiophen-2-yl)methylidene] hydrazin-1-yl]-1,3-thiazol-4-yl}-8-oxatricyclo[7.4.0.0^2,7]trideca-1(9),4,6,10,12-pentaen-3-one]
IC50: 52 ± 18 nM

Compound: CC(=O)C1=C(O)C=C2Oc3c(-c4csc(N/N=C/c5ccc(C)s5)n4)c(O)c(C)c(O)c3[C@@]2(C)C1=O [(+)-16e, (2R)-4-Acetyl-5,11,13-trihydroxy-2,12-dimethyl-10-{2-[(E)-2-[(5-methylthiophen-2-yl)methylidene]hydrazin-1-yl]-1,3-thiazol-4-yl}-8-oxatricyclo[7.4.0.0^2,7]trideca-1(9),4,6,10,12-pentaen-3-one]
IC50: 91 ± 7 nM

Compound: CC(=O)C1=C(O)C=C2Oc3c(-c4csc(N/N=C/c5ccc[nH]5)n4)c(O)c(C)c(O)c3[C@@]2(C)C1=O [(+)-16m, (2R)-4-Acetyl-5,11,13-trihydroxy-2,12-dimethyl-10-{2-[(E)-2-[(1H-pyrrol-2-yl)methylidene] hydrazin-1-yl]-1,3-thiazol-4-yl}-8-oxatricyclo[7.4.0.0^2,7]trideca-1(9),4,6,10,12-pentaen-3-one]
IC50: 188 ± 3 nM

The remaining lines, values ahead:

IC50: 78 ± 3 nM
Compound: COc1ccc(/C=N/Nc2nc(-c3c(O)c(C)c(O)c4c3OC3=CC(O)=C(C(C)=O)C(=O)[C@]34C)cs2)cc1COc1cccc(F)c1 [(−)-17b, (2S)-4-Acetyl-10-{2-[(E)-2-({3-[(3-fluorophenoxy)methyl]-4-methoxyphenyl}methylidene)hydrazin-1-yl]-1,3-thiazol-4-yl}-5,11,13-trihydroxy-2,12-dimethyl-8-oxatricyclo[7.4.0.0^2,7]trideca-1(9),4,6,10,12-pentaen-3-one]

IC50: 29 ± 9 nM
Compound: CC(=O)C1=C(O)C=C2Oc3c(-c4csc(N/N=C/c5cccn5C)n4)c(O)c(C)c(O)c3[C@]2(C)C1=O [(−)-16n, (2S)-4-Acetyl-5,11,13-trihydroxy-2,12-dimethyl-10-{2-[(E)-2-[(1-methyl-pyrrol-2-yl)methylidene]hydrazin-1-yl]-1,3-thiazol-4-yl}-8-oxatricyclo[7.4.0.0^2,7]trideca-1(9),4,6,10,12-pentaen-3-one]

IC50: 94 ± 20 nM
Compound: COc1ccc(/C=N/Nc2nc(-c3c(O)c(C)c(O)c4c3OC3=CC(O)=C(C(C)=O)C(=O)[C@]34C)cs2)cc1CSc1cc(C)ccc1C(C)(C)C [(−)-17g, (2S)-4-Acetyl-10-{2-[(E)-2-[(3-{[(2-tert-butyl-5-methylphenyl)sulfanyl]methyl}-4-methoxyphenyl)methylidene]hydrazin-1-yl]-1,3-thiazol-4-yl}-5,11,13-trihydroxy-2,12-dimethyl-8-oxatricyclo[7.4.0.0^2,7]trideca-1(9),4,6,10,12-pentaen-3-one]

IC50: 48 ± 2 nM
Compound: COc1ccc(/C=N/Nc2nc(-c3c(O)c(C)c(O)c4c3OC3=CC(O)=C(C(C)=O)C(=O)[C@]34C)cs2)cc1COc1ccc(Cl)c(C)c1 [(−)-17h, (2S)-4-Acetyl-10-{2-[(E)-2-({3-[(4-chloro-3-methylphenoxy)methyl]-4-methoxyphenyl}methylidene)hydrazin-1-yl]-1,3-thiazol-4-yl}-5,11,13-trihydroxy-2,12-dimethyl-8-oxatricyclo[7.4.0.0^2,7]trideca-1(9),4,6,10,12-pentaen-3-one]

IC50: 142 ± 4 nM
Compound: CC(=O)C1=C(O)C=C2Oc3c(-c4csc(N/N=C/c5ccc([N+](=O)[O-])s5)n4)c(O)c(C)c(O)c3[C@]2(C)C1=O [(−)-16d, (2S)-4-Acetyl-5,11,13-trihydroxy-2,12-dimethyl-10-{2-[(E)-2-[(5-nitrothiophen-2-yl)methylidene]hydrazin-1-yl]-1,3-thiazol-4-yl}-8-oxatricyclo[7.4.0.0^2,7]trideca-1(9),4,6,10,12-pentaen-3-one]

IC50: 59 ± 5 nM
Compound: COc1ccc(/C=N/Nc2nc(-c3c(O)c(C)c(O)c4c3OC3=CC(O)=C(C(C)=O)C(=O)[C@]34C)cs2)cc1CN1CCN(c2ccc(F)cc2)CC1 [(−)-17i, (2S)-4-Acetyl-10-{2-[(E)-2-[(3-{[4-(4-fluorophenyl)piperazin-1-yl]methyl}-4-methoxyphenyl)methylidene]hydrazin-1-yl]-1,3-thiazol-4-yl}-5,11,13-trihydroxy-2,12-dimethyl-8-oxatricyclo[7.4.0.0^2,7]trideca-1(9),4,6,10,12-pentaen-3-one]

IC50: 1480 ± 265 nM
Compound: CC(=O)C1=C(O)C=C2Oc3c(-c4csc(N/N=C/c5ccccn5)n4)c(O)c(C)c(O)c3[C@]2(C)C1=O [(−)-16b, 2-[(1E)-(2-{4-[(1S)-12-Acetyl-3,5,11-trihydroxy-1,4-dimethyl-13-oxo-8-oxatricyclo [7.4.0.0^2,7]trideca-2(7),3,5,9,11-pentaen-6-yl]-1,3-thiazol-2-yl}hydrazin-1-ylidene)methyl]pyridin-1-ium bromide]

IC50: 71 ± 15 nM
Compound: COc1ccc(/C=N/Nc2nc(-c3c(O)c(C)c(O)c4c3OC3=CC(O)=C(C(C)=O)C(=O)[C@]34C)cs2)cc1CN1CCN(c2ccccc2OC)CC1 [(−)-17j, (2S)-4-Acetyl-10-{2-[(E)-2-[(3-{[4-(2-methoxyphenyl)piperazin-1-yl]methyl}-4-methoxyphenyl)methylidene]hydrazin-1-yl]-1,3-thiazol-4-yl}-5,11,13-trihydroxy-2,12-dimethyl-8-oxatricyclo[7.4.0.0^2,7]trideca-1(9),4,6,10,12-pentaen-3-one]
